Consider four sequences from patent publication US20070128217A1 (priority 2003, published 2007).

Assay [1] relates to rabbit serum obtained by immunizing a rabbit with the SARS-CoV strain Frankfurt 1. It counts as binding. Further details: Binding of a rabbit serum to linear peptides / Binding of a rabbit serum to looped peptides / Rabbit serum linear peptides / Rabbit serum looped peptides / Binding of a rabbit serum to linear peptides of protein N of SARS-CoV Urbani (Rabbit serum linear peptides) / Binding of a rabbit serum to looped/cyclic peptides of protein N of SARS-CoV Urbani (Rabbit serum looped peptides): unit not given here.

Assay [2] relates to antibodies in sera from SARS patients (sera 1a, 1b, 2, 6, 37, 62, London, SARS-yellow, SARS-green). It counts as binding, human. Further details: Binding of serum 6 to linear peptides of protein X1 of SARS-CoV Urbani / Binding of serum 37 to linear peptides of protein X1 of SARS-CoV Urbani / Binding of serum 6 to looped/cyclic peptide (PEPSCAN-ELISA) / Binding of serum 37 to looped/cyclic peptide (PEPSCAN-ELISA) / Binding of serum 37 to looped/cyclic peptides of protein X1 of SARS-CoV Urbani / Binding of serum 6 to linear peptides of protein X2 / Binding of serum 37 to linear peptides of protein X2 / Binding of serum 37 to looped/cyclic peptides of protein X2 of SARS-CoV Urbani / Binding of serum 6 to linear peptides of protein M of SARS-CoV Urbani / Binding of serum 37 to linear peptides of protein M of SARS-CoV Urbani / Binding of serum 6 to looped/cyclic peptides of protein M of SARS-CoV Urbani / Binding of serum 37 to looped/cyclic peptides of protein M of SARS-CoV Urbani / Binding of serum 6 to linear peptides of protein X3 of SARS-CoV Urbani / Binding of serum 37 to linear peptides of protein X3 of SARS-CoV Urbani / Binding of serum 37 to looped/cyclic peptides of protein X3 of SARS-CoV Urbani / Binding of serum 6 to linear peptides of protein X4 of SARS-CoV Urbani / Binding of serum 37 to linear peptides of protein X4 of SARS-CoV Urbani / Binding of serum 37 to looped/cyclic peptides of protein X4 of SARS-CoV Urbani / Binding of serum 6 to linear peptides of protein X5 of SARS-CoV Urbani / Binding of serum 37 to linear peptides of protein X5 of SARS-CoV Urbani / Binding of serum 37 to looped/cyclic peptides of protein X5 of SARS-CoV Urbani / Binding of serum 6 to linear peptides of protein N of SARS-CoV Urbani / Binding of serum 37 to linear peptides of protein N of SARS-CoV Urbani / Binding of serum 6 to linear peptide (PEPSCAN-ELISA) / Binding of serum 1a to looped/cyclic peptides of protein N of SARS-CoV Urbani / Binding of serum 1b to looped/cyclic peptides of protein N of SARS-CoV Urbani / Binding of serum 2 to looped/cyclic peptides of protein N of SARS-CoV Urbani / Binding of serum 6 to looped/cyclic peptides of protein N of SARS-CoV Urbani / Binding of serum 37 to looped/cyclic peptides of protein N of SARS-CoV Urbani / Binding of serum 62 to looped/cyclic peptides of protein N of SARS-CoV Urbani / Binding of serum London to looped/cyclic peptides of protein N of SARS-CoV Urbani / Binding of serum SARS-green to looped/cyclic peptides of protein N of SARS-CoV Urbani: unit not given here.

The subject of assay [3] is control sera (pooled serum of ten healthy LUMC hospital workers; commercial negative donor pooled serum from the Dutch bloodbank). The assay is classed as binding, human. Set-up: Binding of Control serum LUMC to linear peptides / Binding of Control serum Blood-bank to linear peptides / Binding of Control serum LUMC to looped peptides / Binding of Control Serum Blood-Bank to Looped peptides / Binding of Control serum LUMC to linear peptides of the protein M of SARS-CoV Urbani / Binding of Control serum Blood-bank to linear peptides of the protein M of SARS-CoV Urbani / Binding of Control serum LUMC to looped peptides of the protein M of SARS-CoV Urbani / Binding of Control Serum Blood-Bank to Looped peptides of the protein M of SARS-CoV Urbani: unit not given here.

With STAWLCALGKVLPFH, in assay [1], the “Rabbit serum linear peptides” value worked out at 0.5 and the “Rabbit serum looped peptides” value worked out at 0.7. For the same sequence, in assay [2], the “Binding of serum 1a to linear peptides of protein X5 of SARS-CoV Urbani” value stood at 0.8, the “Binding of serum 1a to looped/cyclic peptides of protein X5 of SARS-CoV Urbani” value is recorded as 0.6, the “Binding of serum 1b to linear peptides of protein X5 of SARS-CoV Urbani” value is 0.6 and the “Binding of serum 1b to looped/cyclic peptides of protein X5 of SARS-CoV Urbani” value is 0.4. In addition, in assay [2], the “Binding of serum 2 to linear peptides of protein X5 of SARS-CoV Urbani” value is recorded as 0.6, the “Binding of serum 2 to looped/cyclic peptides of protein X5 of SARS-CoV Urbani” value was 0.6, the “Binding of serum 6 to linear peptides of protein X5 of SARS-CoV Urbani” value was 0.7 and the “Binding of serum 6 to looped/cyclic peptides of protein X5 of SARS-CoV Urbani” value amounted to 0.5. Besides, in assay [2], the “Binding of serum 37 to linear peptides of protein X5 of SARS-CoV Urbani” value turned out to be 0.7, the “Binding of serum 37 to looped/cyclic peptides of protein X5 of SARS-CoV Urbani” value worked out at 0.4, the “Binding of serum 62 to linear peptides of protein X5 of SARS-CoV Urbani” value is given as 0.8 and the “Binding of serum 62 to looped/cyclic peptides of protein X5 of SARS-CoV Urbani” value is 0.7. In addition, in assay [2], the “Binding of serum London to linear peptides of protein X5 of SARS-CoV Urbani” value is recorded as 0.7, the “Binding of serum London to looped/cyclic peptides of protein X5 of SARS-CoV Urbani” value is listed as 0.2, the “Binding of serum SARS-green to linear peptides of protein X5 of SARS-CoV Urbani” value is given as 0.6 and the “Binding of serum SARS-green to looped/cyclic peptides of protein X5 of SARS-CoV Urbani” value is 0.3. Further, in assay [2], the “Binding of serum SARS-yellow to linear peptides of protein X5 of SARS-CoV Urbani” value came to 0.3 and the “Binding of serum SARS-yellow to looped/cyclic peptides of protein X5 of SARS-CoV Urbani” value came out at 1.0. Further, in assay [3], the “Binding of Control Serum Blood-Bank to Looped peptides” value is 0.5, the “Binding of Control serum Blood-bank to linear peptides” value is recorded as 0.9, the “Binding of Control serum LUMC to linear peptides” value was 0.6 and the “Binding of Control serum LUMC to looped peptides” value worked out at 0.6.

As to STHFAFACADGTRHT, in assay [1], the “Rabbit serum linear peptides” value was determined as 0.4 and the “Rabbit serum looped peptides” value was 0.4. Also, in assay [2], the “Binding of serum 1a to linear peptides of protein X4 of SARS-CoV Urbani” value turned out to be 0.7, the “Binding of serum 1a to looped/cyclic peptides of protein X4 of SARS-CoV Urbani” value is on record as 0.7, the “Binding of serum 1b to linear peptides of protein X4 of SARS-CoV Urbani” value came to 0.6 and the “Binding of serum 1b to looped/cyclic peptides of protein X4 of SARS-CoV Urbani” value stood at 0.5. Moreover, in assay [2], the “Binding of serum 2 to linear peptides of protein X4 of SARS-CoV Urbani” value amounted to 0.5, the “Binding of serum 2 to looped/cyclic peptides of protein X4 of SARS-CoV Urbani” value came to 0.6, the “Binding of serum 6 to linear peptides of protein X4 of SARS-CoV Urbani” value came to 0.7 and the “Binding of serum 6 to looped/cyclic peptides of protein X4 of SARS-CoV Urbani” value is reported as 0.5. Besides, in assay [2], the “Binding of serum 37 to linear peptides of protein X4 of SARS-CoV Urbani” value stood at 0.7, the “Binding of serum 37 to looped/cyclic peptides of protein X4 of SARS-CoV Urbani” value is 0.6, the “Binding of serum 62 to linear peptides of protein X4 of SARS-CoV Urbani” value is 0.8 and the “Binding of serum 62 to looped/cyclic peptides of protein X4 of SARS-CoV Urbani” value came to 0.5. For the same sequence, in assay [2], the “Binding of serum London to linear peptides of protein X4 of SARS-CoV Urbani” value is recorded as 0.8, the “Binding of serum London to looped/cyclic peptides of protein X4 of SARS-CoV Urbani” value is 0.3, the “Binding of serum SARS-green to linear peptides of protein X4 of SARS-CoV Urbani” value is 0.6 and the “Binding of serum SARS-green to looped/cyclic peptides of protein X4 of SARS-CoV Urbani” value came to 0.5. Also, in assay [2], the “Binding of serum SARS-yellow to linear peptides of protein X4 of SARS-CoV Urbani” value stood at 0.3 and the “Binding of serum SARS-yellow to looped/cyclic peptides of protein X4 of SARS-CoV Urbani” value turned out to be 0.6. In addition, in assay [3], the “Binding of Control Serum Blood-Bank to Looped peptides” value was determined as 0.7, the “Binding of Control serum Blood-bank to linear peptides” value came to 0.6, the “Binding of Control serum LUMC to linear peptides” value was determined as 0.5 and the “Binding of Control serum LUMC to looped peptides” value is listed as 0.9.

As to SVSPKLFIRQEEVQQ, in assay [1], the “Rabbit serum linear peptides” value is recorded as 0.4 and the “Rabbit serum looped peptides” value worked out at 0.3. In addition, in assay [2], the “Binding of serum 1a to linear peptides of protein X4 of SARS-CoV Urbani” value was determined as 0.7, the “Binding of serum 1a to looped/cyclic peptides of protein X4 of SARS-CoV Urbani” value was determined as 0.7, the “Binding of serum 1b to linear peptides of protein X4 of SARS-CoV Urbani” value is recorded as 0.5 and the “Binding of serum 1b to looped/cyclic peptides of protein X4 of SARS-CoV Urbani” value is listed as 0.6. Besides, in assay [2], the “Binding of serum 2 to linear peptides of protein X4 of SARS-CoV Urbani” value stood at 0.3, the “Binding of serum 2 to looped/cyclic peptides of protein X4 of SARS-CoV Urbani” value turned out to be 0.6, the “Binding of serum 6 to linear peptides of protein X4 of SARS-CoV Urbani” value was determined as 0.5 and the “Binding of serum 6 to looped/cyclic peptides of protein X4 of SARS-CoV Urbani” value was determined as 0.4. In assay [2], the “Binding of serum 37 to linear peptides of protein X4 of SARS-CoV Urbani” value stood at 0.7, the “Binding of serum 37 to looped/cyclic peptides of protein X4 of SARS-CoV Urbani” value was 0.7, the “Binding of serum 62 to linear peptides of protein X4 of SARS-CoV Urbani” value amounted to 0.7 and the “Binding of serum 62 to looped/cyclic peptides of protein X4 of SARS-CoV Urbani” value amounted to 0.6. Besides, in assay [2], the “Binding of serum London to linear peptides of protein X4 of SARS-CoV Urbani” value is listed as 0.6, the “Binding of serum London to looped/cyclic peptides of protein X4 of SARS-CoV Urbani” value came to 0.3, the “Binding of serum SARS-green to linear peptides of protein X4 of SARS-CoV Urbani” value was determined as 0.4 and the “Binding of serum SARS-green to looped/cyclic peptides of protein X4 of SARS-CoV Urbani” value is recorded as 0.7. In addition, in assay [2], the “Binding of serum SARS-yellow to linear peptides of protein X4 of SARS-CoV Urbani” value is 0.3 and the “Binding of serum SARS-yellow to looped/cyclic peptides of protein X4 of SARS-CoV Urbani” value amounted to 0.4. Moreover, in assay [3], the “Binding of Control Serum Blood-Bank to Looped peptides” value is 0.4, the “Binding of Control serum Blood-bank to linear peptides” value is 0.6, the “Binding of Control serum LUMC to linear peptides” value stood at 0.3 and the “Binding of Control serum LUMC to looped peptides” value is recorded as 0.7.

As for SVTDTIVVTEGDGIS, in assay [1], the “Binding of a rabbit serum to linear peptides” value is listed as 0.1 and the “Binding of a rabbit serum to looped peptides” value is recorded as 0.4. In assay [2], the “Binding of serum 1a to linear peptides of protein X1 of SARS-CoV Urbani” value came out at 0.6, the “Binding of serum 1a to looped/cyclic peptides of protein X1 of SARS-CoV Urbani” value was 0.3, the “Binding of serum 1b to linear peptides of protein X1 of SARS-CoV Urbani” value stood at 0.5 and the “Binding of serum 1b to looped/cyclic peptides of protein X1 of SARS-CoV Urbani” value came to 0.2. In addition, in assay [2], the “Binding of serum 2 to linear peptides of protein X1 of SARS-CoV Urbani” value was 0.4, the “Binding of serum 2 to looped/cyclic peptides of protein X1 of SARS-CoV Urbani” value is 0.1, the “Binding of serum 6 to linear peptides of protein X1 of SARS-CoV Urbani” value turned out to be 0.4 and the “Binding of serum 6 to looped/cyclic peptides of protein X1 of SARS-CoV Urbani” value was found to be 0.1. In assay [2], the “Binding of serum 37 to linear peptides of protein X1 of SARS-CoV Urbani” value is listed as 0.5, the “Binding of serum 37 to looped/cyclic peptides of protein X1 of SARS-CoV Urbani” value is reported as 0.3, the “Binding of serum 62 to linear peptides of protein X1 of SARS-CoV Urbani” value amounted to 0.5 and the “Binding of serum 62 to looped/cyclic peptides of protein X1 of SARS-CoV Urbani” value stood at 0.3. In assay [2], the “Binding of serum London to linear peptides of protein X1 of SARS-CoV Urbani” value stood at 0.2, the “Binding of serum London to looped/cyclic peptides of protein X1 of SARS-CoV Urbani” value is given as 0.1, the “Binding of serum SARS-green to linear peptides of protein X1 of SARS-CoV Urbani” value is reported as 0.1 and the “Binding of serum SARS-green to looped/cyclic peptides of protein X1 of SARS-CoV Urbani” value is listed as 0.2. Besides, in assay [2], the “Binding of serum SARS-yellow to linear peptides of protein X1 of SARS-CoV Urbani” value came to 0.4 and the “Binding of serum SARS-yellow to looped/cyclic peptides of protein X1 of SARS-CoV Urbani” value worked out at 0.2. In addition, in assay [3], the “Binding of Control Serum Blood-Bank to Looped peptides” value came out at 0.3, the “Binding of Control serum Blood-bank to linear peptides” value was 0.4, the “Binding of Control serum LUMC to linear peptides” value is given as 0.4 and the “Binding of Control serum LUMC to looped peptides” value worked out at 0.3.
